Test results reported in ChEMBL document CHEMBL1126722, “Potent nonpeptide angiotensin II receptor antagonists. 2. 1-(Carboxybenzyl)imidazole-5-acrylic acids” (J Med Chem, 1993).

Experiments:
Angiotensin II receptor = molecular target: T1, Angiotensin II receptor (Rattus norvegicus, UniProt P29089+P25095+P35351); assay: Inhibition of [125I]AII binding to Angiotensin II receptor, type 1 of rat mesenteric arteries; type: protein assay
T1 sequence (P29089 whole entry): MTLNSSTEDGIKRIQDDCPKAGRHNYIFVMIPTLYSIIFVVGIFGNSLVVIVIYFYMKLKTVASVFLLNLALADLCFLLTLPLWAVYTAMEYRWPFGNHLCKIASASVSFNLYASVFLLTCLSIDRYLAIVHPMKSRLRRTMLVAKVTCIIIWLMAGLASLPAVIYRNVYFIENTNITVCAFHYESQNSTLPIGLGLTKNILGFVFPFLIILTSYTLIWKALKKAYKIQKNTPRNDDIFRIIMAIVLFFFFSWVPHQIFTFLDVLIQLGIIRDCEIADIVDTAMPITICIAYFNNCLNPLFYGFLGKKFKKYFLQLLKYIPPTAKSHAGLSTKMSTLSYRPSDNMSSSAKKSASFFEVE
T1 sequence (P25095 whole entry): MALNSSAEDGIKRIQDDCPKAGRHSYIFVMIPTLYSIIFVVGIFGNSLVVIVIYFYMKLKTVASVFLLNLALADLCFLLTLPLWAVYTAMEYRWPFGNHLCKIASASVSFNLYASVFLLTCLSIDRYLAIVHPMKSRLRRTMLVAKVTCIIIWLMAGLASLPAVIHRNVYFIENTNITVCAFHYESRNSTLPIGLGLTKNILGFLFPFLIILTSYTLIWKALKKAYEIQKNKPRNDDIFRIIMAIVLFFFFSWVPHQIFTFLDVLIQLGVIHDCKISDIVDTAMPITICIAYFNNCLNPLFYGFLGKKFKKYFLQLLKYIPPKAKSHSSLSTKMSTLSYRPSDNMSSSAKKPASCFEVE
T1 sequence (P35351 whole entry): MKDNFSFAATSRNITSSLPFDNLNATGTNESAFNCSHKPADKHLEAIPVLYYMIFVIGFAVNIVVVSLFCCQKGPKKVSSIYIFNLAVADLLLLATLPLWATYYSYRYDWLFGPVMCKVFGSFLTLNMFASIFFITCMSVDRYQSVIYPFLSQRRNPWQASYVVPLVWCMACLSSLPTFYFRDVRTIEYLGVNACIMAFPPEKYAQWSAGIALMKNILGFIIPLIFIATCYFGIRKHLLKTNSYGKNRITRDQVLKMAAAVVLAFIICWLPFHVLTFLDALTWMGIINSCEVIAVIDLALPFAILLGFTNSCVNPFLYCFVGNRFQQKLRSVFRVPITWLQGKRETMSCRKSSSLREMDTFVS

[1] = molecular target: Angiotensin II receptor (Rattus norvegicus) (UniProt P29089+P25095+P35351); assay: In vivo inhibition of pressor response to angiotensin II in conscious normotensive rats; type: functional, organism-based

Row | SMILES | IC50 (Angiotensin II receptor) [nM] | ID50 [1] [mg/kg]
1 | CCCCc1ncc(/C=C(\Cc2cccs2)C(=O)O)n1Cc1ccccc1C(=O)O | 6000 | –
2 | CCCCc1ncc(/C=C(\Cc2cccs2)C(=O)O)n1Cc1ccc(C(=O)O)c(-c2ccccc2)c1 | 2.5 | 0.18
3 | CCCCc1ncc(/C=C(\Cc2cccs2)C(=O)O)n1Cc1ccc(C(=O)OC)cc1 | 39 | –
4 | CCCCc1ncc(/C=C(\Cc2cccs2)C(=O)O)n1Cc1ccc(C(=O)O)cc1Cl | 1.45 | 0.06
5 | CC(C)Cc1ncc(/C=C(\Cc2cccs2)C(=O)O)n1Cc1ccc(C(=O)O)cc1 | 163 | 2
6 | CCCc1ncc(/C=C(\Cc2cccs2)C(=O)O)n1Cc1ccccc1Cl | 127 | 8.1
7 | CC(C)CCc1ncc(/C=C(\Cc2cccs2)C(=O)O)n1Cc1ccc(C(=O)O)cc1 | 33.6 | –
8 | CCCC/C(=C\c1cnc(CCCC)n1Cc1ccc(C(=O)O)cc1)C(=O)O | – | 0.33
9 | CCCCc1ncc(/C=C(\Cc2cccs2)C(=O)O)n1Cc1ccccc1[N+](=O)[O-] | 31 | 2.6
10 | CCCCc1ncc(/C=C(/C(=O)O)C(C)(C)c2cccs2)n1Cc1ccc(C(=O)O)cc1 | 416 | –
11 | CCCCc1ncc(/C=C(\Cc2cccs2)C(N)=O)n1Cc1ccc(C(N)=O)cc1 | 94.2 | –
12 | CCCCc1ncc(C/C(=C/c2cccs2)C(=O)O)n1Cc1ccc(C(=O)O)cc1 | – | > 3
13 | CCCCc1ncc(/C=C(\Cc2cccs2)C(=O)O)n1Cc1ccc(-c2ccccc2C(=O)O)cc1 | 6.6 | 0.62
14 | CCCCc1ncc(/C=C(\Cc2cccs2)C(=O)O)n1Cc1ccc([N+](=O)[O-])cc1 | 620 | –
15 | CCCCCCc1ncc(/C=C(\Cc2cccs2)C(=O)O)n1Cc1ccc(C(=O)O)cc1 | 0.8 | 0.6
16 | CCCCc1ncc(/C=C(\Cc2cccs2)C(=O)O)n1Cc1ccccc1C(F)(F)F | 260 | 3.4
17 | CCCCc1ncc(/C=C(\Cc2ccccc2)C(=O)O)n1Cc1ccc(C(=O)O)cc1 | 4.26 | –
18 | CCCCc1ncc(/C=C(\Cc2cccs2)C(=O)O)n1-c1ccc(C(=O)O)cc1 | 250 | –
19 | CCCCc1ncc(/C=C(\Cc2cccs2)C(=O)O)n1Cc1ccccc1C#N | 22 | –
20 | CCCCc1ncc(/C=C(\Cc2cccs2)C(=O)O)n1Cc1ccc(S(N)(=O)=O)cc1 | 4.5 | > 3
21 | CCCCCCc1ncc(/C=C(\Cc2cccs2)C(=O)O)n1Cc1ccccc1Cl | 123 | 5.7

Row | SMILES | IC50 (Angiotensin II receptor) [nM] | ID50 [1] [mg/kg]
22 | CCCCc1ncc(/C=C(\Cc2cccs2)C(=O)O)n1Cc1ccc(C(=O)OCC)cc1 | 27.6 | –
23 | CCCCc1ncc(/C=C(\Cc2cccs2)C(=O)O)n1Cc1ccccc1O | 34 | –
24 | CCCCc1ncc(/C=C(\Cc2cccs2)C(=O)O)n1Cc1cccc([N+](=O)[O-])c1 | 210 | 7
25 | CC/C=C/c1ncc(/C=C(\Cc2cccs2)C(=O)O)n1Cc1ccccc1Cl | 570 | –
26 | CCCc1cccc(/C=C(\Cc2cccs2)C(=O)O)c1Cc1ccc(C(=O)O)cc1 | > 10 | –
27 | CCCCc1ncc(/C=C(\Cc2cccs2)C(=O)O)n1Cc1ccc(C(=O)O)cc1[N+](=O)[O-] | 0.15 | 0.06
28 | CCCCc1ncc(/C=C(\Cc2cccs2)C(=O)O)n1Cc1ccc(O)c(C)c1 | 21 | –
29 | CCCCc1ncc(/C=C(\Cc2cccs2)c2nn[nH]n2)n1Cc1ccc(C(=O)O)cc1 | 0.3 | 0.7
30 | CCCCc1ncc(/C=C(\Cc2cccs2)c2nn[nH]n2)n1Cc1ccccc1Cl | 310 | 8
31 | CCCCc1ncc(/C=C(\Cc2cccs2)C(=O)O)n1Cc1ccccc1OC | 7350 | 15
32 | CCCCc1ncc(/C=C(\Cc2cccs2)C(=O)O)n1Cc1ccccc1Cl | – | 3.6
33 | CCCCc1ncc(/C=C(\Cc2cccs2)c2nn[nH]n2)n1Cc1ccccc1[N+](=O)[O-] | 230 | 3.5
34 | CCCCCCc1ncc(/C=C(\Cc2cccs2)C(=O)O)n1Cc1ccccc1[N+](=O)[O-] | 43 | –
35 | CCCCc1ncc(/C=C(\Cc2cccs2)C(=O)O)n1Cc1cccc(OC)c1[N+](=O)[O-] | 130 | –
36 | CCCCc1ncc(/C=C(\Cc2cccs2)C(=O)OCC)n1Cc1ccc(C(=O)OCC)cc1 | 1270 | –
37 | CCCCc1ncc(/C=C(\Cc2cccs2)C(=O)O)n1Cc1cc(Cl)c(C(=O)O)cc1Cl | 35 | 0.68
38 | CCCCc1ncc(/C=C(\Cc2cccs2)C(=O)O)n1Cc1ccc(CC(=O)O)cc1 | 60 | 0.84
39 | CCCCc1ncc(/C=C(\Cc2cccs2)C(=O)O)n1Cc1ccc(C(=O)O)c(Cl)c1 | 1 | 0.12
40 | CCCCc1ncc(/C=C(\Cc2cccs2)C(=O)O)n1Cc1ccc(C#N)cc1 | 118 | –
41 | CCCCc1ncc(/C=C/C(=O)O)n1Cc1ccc(C(=O)O)cc1 | 391 | –
42 | CCCCc1ncc(/C=C(\Cc2cccs2)C(=O)O)n1Cc1ccc(C(=O)O)c(C(=O)O)c1 | 4.6 | 0.12

Row | SMILES | IC50 (Angiotensin II receptor) [nM] | ID50 [1] [mg/kg]
43 | CCCCc1ncc(/C=C(\Cc2cccs2)C(=O)O)n1CCc1ccc(C(=O)O)cc1 | 63 | –
44 | CCCc1ncc(/C=C(\Cc2cccs2)C(=O)O)n1Cc1ccc(C(=O)O)cc1 | 5 | 0.16
45 | CCCCc1ncc(/C=C(\Cc2cccs2)C(=O)NCC(=O)O)n1Cc1ccc(C(=O)O)cc1 | 4.81 | –
46 | CCCCc1ncc(CC(Cc2cccs2)C(=O)O)n1Cc1ccc(C(=O)O)cc1 (centres undefined) | 53 | 0.24
47 | CCCCc1ncc(/C=C(\Cc2cccs2)C(=O)O)n1Cc1ccc(OC)c(C)c1 | 66 | –
48 | CCCCc1ncc(/C=C(\Cc2cccs2)C(=O)O)n1Cc1ccc(C(N)=O)cc1 | 0.56 | –
49 | CCCCc1ncc(/C=C(\Cc2cccs2)C(=O)O)n1Cc1ccc(-c2nn[nH]n2)cc1 | 0.4 | 0.2
50 | CCCc1ncc(/C=C(\Cc2cccs2)C(=O)O)n1Cc1ccccc1[N+](=O)[O-] | 15 | –
51 | CCCCc1ncc(/C=C(\Cc2cccs2)C(=O)O)n1Cc1ccccc1 | 4530 | –
52 | CCCCc1cnc(/C=C(\Cc2cccs2)C(=O)O)n1Cc1ccc(C(=O)O)cc1 | 248 | –
53 | CCCCc1ncc(/C=C(\Cc2cccs2)C(=O)O)n1Cc1ccc(C(=O)O)c(O)c1 | 0.59 | 0.15
54 | CCCCc1ncc(/C=C(\Cc2cccs2)C(=O)O)n1Cc1cccc(Cl)c1Cl | 46 | 2.8
55 | CCCCc1ncc(/C=C(\CCc2cccs2)C(=O)O)n1Cc1ccc(C(=O)O)cc1 | – | 0.24
56 | CCCCc1ncc(/C=C(\Cc2cccs2)c2nn[nH]n2)n1Cc1cccc(Cl)c1Cl | 1300 | 8
57 | CCCCc1ncc(/C=C(\Cc2cccs2)C(=O)O)n1Cc1ccc(C(=O)O)cc1 (stereo in doubt; 2) | – | 0.08
58 | CCCCc1ncc(/C=C(\Cc2cccs2)C(=O)O)n1Cc1cccc(OC)c1 | 180 | 8
59 | CCCCc1ncc(/C=C(\Cc2cccs2)c2nn[nH]n2)n1Cc1ccccc1C(F)(F)F | – | 8
60 | CCCCc1ncc(/C=C(\Cc2cccs2)C(N)=O)n1Cc1ccc(C(=O)O)cc1 | 21 | –
61 | CCCCc1ncc(/C=C(\CC2CCCS2)C(=O)O)n1Cc1ccc(C(=O)O)cc1 (centres undefined) | 33.8 | –
62 | CCCCc1ncc(/C=C(\Cc2cccs2)C(=O)O)n1Cc1cccc(C(=O)O)c1 | 3.3 | –
